According to US20090074785A1, “Compositions and methods for treatment of colorectal cancer” (priority 2007, published 2009):

Legend:
IBABP-L = test: Regulation of expression of IBABP-L in Caco-2 cells, quantitative RT-PCR; format: cell-based, human; conditions: 24 h
Protocol: (§1) The expression of IBABP-L and IBABP was measured by quantitative RT-PCR. The mRNA copy number of each variant is normalized to the expression the housekeeping gene ARPP0. Values in the figure represent the average of three experiments with each replicate performed in duplicate.
(§2) To determine the relative expression levels of IBABP-L and IBABP, a two-step quantitative RT-PCR procedure was used. In the first step, complementary DNA (cDNA) was synthesized from total RNA. […] In the second step, quantitative PCR (QPCR) was carried out on a Mx 3000P Real-Time PCR System (Stratagene, La Jolla, Calif.) using a solution containing diluted cDNA (1:20; 2.0 μl), 1×SYBR Green PCR Master Mix (Applied Biosystems, Foster City, Calif.), and primers for IBABP-L, IBABP, or ARPP0 (0.25 μM). […]
(§3) Regulation of expression of the IBABP variants in Caco-2 cells. […] Cells were harvested, cellular RNA was isolated using the RNeasy Mini Kit (Qiagen) according to manufacturer instruction, and expression of IBABP variants was determined by QPCR as described above.
(§4) Bile acids differentially regulate the variants of IBABP. […] Caco-2 cells were treated with either chenodeoxycholic acid (CDCA), deoxycholic acid (DCA), or 9cRA, and the relative expression of transcripts encoding IBABP-L and IBABP was measured by quantitative RT-PCR (FIG. 10).

IBABP = test: Regulation of expression of IBABP in Caco-2 cells, quantitative RT-PCR; format: cell-based, human; conditions: 100 nM, 24 h
Protocol: as §1, §2, §3, §4

BAR (FXR, NR1H4) = biological target: T1, BAR (FXR, NR1H4) (Homo sapiens, UniProt Q96RI1); conditions: gene-selective BAR modulator; cited from earlier work
T1 sequence (Q96RI1 1-486): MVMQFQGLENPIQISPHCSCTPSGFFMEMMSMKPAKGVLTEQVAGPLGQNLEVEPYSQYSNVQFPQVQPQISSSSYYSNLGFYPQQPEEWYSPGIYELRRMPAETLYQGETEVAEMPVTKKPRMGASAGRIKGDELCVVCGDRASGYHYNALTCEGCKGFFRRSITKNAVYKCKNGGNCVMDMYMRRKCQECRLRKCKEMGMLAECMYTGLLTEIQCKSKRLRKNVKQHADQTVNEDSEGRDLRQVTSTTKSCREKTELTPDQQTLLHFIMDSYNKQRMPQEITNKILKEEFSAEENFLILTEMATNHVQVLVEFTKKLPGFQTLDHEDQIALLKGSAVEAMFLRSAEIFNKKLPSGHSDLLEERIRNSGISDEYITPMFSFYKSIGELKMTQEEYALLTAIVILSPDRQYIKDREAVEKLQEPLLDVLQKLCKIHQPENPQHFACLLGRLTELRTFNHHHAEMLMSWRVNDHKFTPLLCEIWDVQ

IBABP-L promoter = IBABP-L promoter luciferase reporter in HCT 116 cells; format: cell-based, human; conditions: 25 ng/ml for 5 hr, HCT116 cells
Protocol: To verify that NF-κB binds the response element and drives the expression of IBABP-L, a number of studies were performed with deletions and mutations of the promoter linked to a reporter gene (PGL3-Basic Luciferase), as shown in FIG. 18. These studies were performed in HCT 116 colon cancer cells, which have elevated expression of IBABP-L. The region containing the putative NF-κB binding motif (−1563/+78) was amplified from human genomic DNA by PCR. Deletion constructs of this promoter were made through PCR or restriction enzyme digestion. The G C mutation was made through site-directed mutagenesis. The wild type and modified promoters were inserted into PGL3 vector containing firefly Luciferase (Luc) reporter (Promega). Reporter vectors were constructed to either delete the entire putative NF-κB binding motif, or mutate the most conserved “G” to “C” within this motif. The wild type promoter and modified reporters were introduced into HCT 116 cells, and luciferase activity was analyzed at 24 hr.
As shown in FIGS. 19A-C, a functional analysis of the IBABP-L promoter was performed. […] The luciferase activity was measured in 24 h and normalized to the Renilla signal in the absence of the IBABP-L promoter. […] Luciferase activity was measured in 24 hr and normalized. pRL-CMV was included in every transfection. […]

In the case of `CC1=C(/C=C/C(C)=C\C=C\C(C)=C\C(=O)O)C(C)(C)CCC1` [9cRA, 9-cis-retinoic acid], the “effect on expression of IBABP-L” value (IBABP-L; 100 nM) is reported as “without effect” and the “effect on expression of IBABP” value (IBABP) is reported as “up-regulated”.
For `CCCCCCOc1c(\C(C)=C/C=C/C(C)=C/C(=O)O)cc(C(C)C)cc1C(C)C` [AGN34], the “activity on CYP7A1” value (BAR (FXR, NR1H4)) is listed as “agonist”, the “activity on IBABP” value (BAR (FXR, NR1H4)) is listed as “antagonist” and the “activity on SHP” value (BAR (FXR, NR1H4)) is listed as “neutral”.
In the case of `C[C@H](CCC(=O)O)[C@H]1CC[C@H]2[C@@H]3[C@H](O)C[C@@H]4C[C@H](O)CC[C@]4(C)[C@H]3CC[C@]12C` [CDCA, chenodeoxycholic acid], the “effect on expression of IBABP-L” value (IBABP-L; 100 μM, normalized to ARPP0) is reported as “without effect”.
In the case of tumor necrosis factor α [TNFα], the “transcription activity of the wild type IBABP-L promoter” value (IBABP-L promoter) is reported as “increased” and the “transcription activity of the mutated IBABP-L promoter” value (IBABP-L promoter; G to C mutation in NF-κB motif) is reported as “not the mutated promoter”.
